The structures appear in SMILES notation. ≈ marks a conversion by molar mass, not a printed value.

The test system of experiment [1] is B. distasonis 8503. Description: MIC, in vitro antibacterial activity (standard strains). The experiment is classed as cell-based. Conditions: Parabacteroides distasonis, 8503.
In experiment [2] the test system is E. coli ML 4707. Description: Therapeutic efficacy against systemic infections in mice, E. coli ML 4707. The settings on record: Escherichia coli, ML4707, in Mus musculus, po, 1 h.
Experiment [3] deals with B. fragilis 25285. Description: MIC, in vitro antibacterial activity (standard strains). Format: cell-based, Bacteroides fragilis. Conditions: Bacteroides fragilis, 25285.
In experiment [4] the test system is Proteus vulgaris IFO 3167. Described as above. Format: cell-based. The settings on record: Proteus vulgaris, IFO3167.
In experiment [5] the test system is Bacillus subtilis PCI 219. The experiment is described as above. The experiment is classed as cell-based. The settings on record: Bacillus subtilis, PCI219.
Experiment [6] concerns Pseudomonas aeruginosa V-1. Described as above. Format: cell-based. Conditions: Pseudomonas aeruginosa, V1.
Experiment [7] relates to K. pneumoniae 1-220S. The experiment is described as above. Format: cell-based, Klebsiella pneumoniae. The settings on record: Klebsiella pneumoniae, 1220S.
Experiment [8] relates to C. ramosum. The description is as above. The experiment is classed as cell-based. Conditions: Thomasclavelia ramosa.
The test system of experiment [9] is S. pneumoniae S-4288. Description: Therapeutic efficacy against systemic infections in mice, S. pneumoniae S-4288. Conditions: Streptococcus pneumoniae, S4288, in Mus musculus, po, 1 h.
Experiment [10] has as its system E. coli ML 4707. Description: MIC, in vitro antibacterial activity (standard strains). Format: cell-based, Escherichia coli. The settings on record: Escherichia coli, ML4707, 10^6 cells/ml; Gram -; Table 1.
In experiment [11] the test system is B. fragilis 0558. Described as above. The experiment is classed as cell-based, Bacteroides fragilis. Conditions: Bacteroides fragilis, 0558.
Experiment [12] relates to MR S. aureus KYB 623. Description: Therapeutic efficacy against systemic infections in mice, MR S. aureus KYB 623. The settings on record: Staphylococcus aureus, in Mus musculus, po, 1 h.
For experiment [13], the system named is Citrobacter freundii IID 976. Description: MIC, in vitro antibacterial activity (standard strains). The settings on record: Citrobacter freundii, IID976. Format: cell-based.
The subject of experiment [14] is Bacteroides fragilis GM 7000. The experiment is described as above. Format: cell-based. Conditions: Bacteroides fragilis, GM7000.
In experiment [15] the test system is Shigella sonnei IID 969. The experiment is described as above. The experiment is classed as cell-based. The settings on record: Shigella sonnei, IID969; 10^6 cells/ml; Gram -; read-out: MIC. The protocol: Minimal inhibitory concentrations (MICs) were determined in accordance with the method recommended by Japan Society of Chemotherapy.
In experiment [16] the test system is Pst. micros UPI 5464-1. The experiment is described as above. The experiment is classed as cell-based. Conditions: Parvimonas micra, UPI54641; 10^6 cells/ml; Gram +; read-out: MIC.
In experiment [17] the test system is Morganella morganii IID 602. Described as above. The experiment is classed as cell-based. Conditions: Morganella morganii, IID602; 10^6 cells/ml; Gram -; read-out: MIC.
Experiment [18] deals with Veillonella parvula KYA 10790. The description is as above. Format: cell-based. Conditions: Veillonella parvula, KYA10790; 10^6 cells/ml; Gram -; read-out: MIC.

For `O=C(O)c1cn(C2CC2)c2cc(N3CCNCC3)c(F)cc2c1=O` [CPFX, ciprofloxacin, reference compound], the MIC (in general, the lowest concentration that inhibits growth of the organism) was 6.25 µg/mL (≈ 18.9 µM) in experiment [1]; 6.25 µg/mL (≈ 18.9 µM) in experiment [3]; at most 0.0063 µg/mL in experiment [4]; 0.05 µg/mL (≈ 0.151 µM) in [5]; 0.2 µg/mL (≈ 0.604 µM) in experiment [6]; 0.05 µg/mL (≈ 0.151 µM) in [7]. In addition, the minimal inhibitory concentration (MIC) in [8] was 6.25 µg/mL (≈ 18.9 µM); in experiment [10], at most 0.0063 µg/mL; in experiment [11] it was 3.13 µg/mL (≈ 9.45 µM); in experiment [13], at most 0.0063 µg/mL; in [14] it was 3.13 µg/mL (≈ 9.45 µM); in experiment [15] it was at most 0.0063 µg/mL. Also, the MIC amounted to 0.2 µg/mL (≈ 0.604 µM) in [16], 0.05 µg/mL (≈ 0.151 µM) in experiment [17] and 0.2 µg/mL (≈ 0.604 µM) in experiment [18]. The ED50 (in general, the midpoint of the dose-response relation) in [2] is 1.4 mg/kg; in experiment [9], above 100 mg/kg; in experiment [12] it was 37 mg/kg.

The values are drawn from US4753953A, “Pyridonecarboxylic acid derivatives and antibacterial pharmaceutical compositions thereof” (priority 1985, dated 1988).
